Values of other authors in article PMC5289470, “The biodistribution of 5-[^18F]fluoropyrazinamide in Mycobacterium tuberculosis-infected mice determined by positron emission tomography” (PLoS ONE, 2017).

Test system: PZA-resistant M. tuberculosis isolates
Conditions: ref [14], [30]; cited from earlier work

NC(=O)c1cnc(Cl)cn1 [5-Cl-PZA, 5-Chloropyrazinamide]
in vitro activity against PZA-resistant M. tuberculosis isolates: has in vitro activity
